The nature of one data set: in vitro. To be noted: human.
In a further data set the test system is HCMV, strain AD169. As to the kind of experiment: Plaque reduction assay in HFF cells. The class given is cell-based. The conditions noted are these: for EC50: reduces viral replication by 50%; for EC90: reduces viral replication by 90%. As to the method: (§1) E-377 and DM2.1 strains of HSV-1 as well as the MS strain of HSV-2 were a gift of Jack Hill (Burroughs Wellcome). HCMV strain AD169 and VZV strain Ellen were obtained from the American Type Culture Collection (ATCC, Manassas, Va.).
(§2) Monolayers of HFF cells were prepared in six-well plates and incubated at 37° C. for 2 d to allow the cells to reach confluency. Media was then aspirated from the wells and 0.2 ml of virus was added to each of three wells to yield 20-30 plaques in each well. The virus was allowed to adsorb to the cells for 1 h and the plates were agitated every 15 minutes. Compounds were diluted in assay media consisting of MEM with Earl's salts supplemented with 2% FBS, L-glutamine, penicillin, and gentamycin. Solutions ranging from 300 μM to 0.1 μM were added to duplicate wells and the plates were incubated for various times, depending on the virus used. For HSV-1 and -2, the monolayers were then stained with 1% crystal violet in 20% methanol and the unbound dye removed by washing with dH2O. For all other assays, the cell monolayer was stained with 1% Neutral Red solution for 4 h then the stain was aspirated and the cells were washed with PBS. For all assays, plaques were enumerated using a stereomicroscope and the concentration of compound that reduced plaque formation by 50% (EC50) was interpolated from the experimental data.
For orientation: In a plaque reduction assay, fewer plaques than in the control indicate reduced infectivity or spread.

The subject of a further data set is cell membrane. To be noted: cited from earlier work; for permeation of cell membranes: when complexed with free DNA.
The nature of data set [1]: Parallel cytotoxicity assay in uninfected HFF cells. To be noted: human.
For data set [2], the system named is HSV-1, strain DM2.1 (a resistant isolate). Nature of the data set: Plaque reduction assay in HFF cells. The class given is cell-based. The conditions noted are these: Human alphaherpesvirus 1, HFF. The procedure: as §1, §2
For another data set, the system named is HSV-1, strain E-377. As to the kind of experiment: Plaque reduction assay in HFF cells. The data set is classed as cell-based. The conditions noted are these: Human alphaherpesvirus 1, HFF; for EC50: concentration that reduces viral replication by 50%, various trials, each with its control; for EC90: concentration that reduces viral replication by 90%. The procedure: as §1, §2

The next data set has as its system HSV-2, strain G. As to the kind of experiment: Plaque reduction assay in HFF cells. The data set is classed as cell-based. The conditions noted are these: for EC50: reduces viral replication by 50%.
Another data set deals with VZV, strain Ellen. As to the kind of experiment: Plaque reduction assay in HFF cells. The class given is cell-based. To be noted: for EC50: Human alphaherpesvirus 3, reduces viral replication by 50%; for EC90: Human alphaherpesvirus 3, reduces viral replication by 90%. As to the method: HCMV strain AD169 and VZV strain Ellen were obtained from the American Type Culture Collection (ATCC, Manassas, Va.).
as §2, with “PBS.” for “PBS. For all assays, plaques were enumerated using a stereomicroscope and the concentration of compound that reduced plaque formation by 50% (EC50) was interpolated from the experimental data.”
However, unlike assays for HSV-1, HSV-2, MCMV and CMV compounds (where the compound is added to cells prior to virus addition), virus particles are not used in infection in assays for VZV where latent virus in the cells is induced to undergo a lytic infection, since the virions are unstable and infected cells. Thus, in the VZV study, bPEI is added to cell solution and virus is induced from within the cell by induction of lytic infectious cycle.

For data set [3], the system named is DNA. Nature of the data set: DNA condensation, internal experimental observations, dint. The data set is classed as biochemical.
Data set [4] has as its system DNA. To be noted: literature values; cited from earlier work.
For another data set, the system named is phage λ. As to the kind of experiment: Intracapsid DNA transition temperature by ITC and SAXS. The conditions noted are these: for DNA transition temperature T*: WT DNA phage λ. Set-up: species or system bacteriophage λ. The source says: WT bacteriophage λ cI857, with a genome length of 48.5 kb was produced by thermal induction of lysogenic E. coli strain AE1 derived from the 52773 strain. Two phage λ mutants with shorter genome lengths (78 and 94% of the WT DNA length) were produced using a similar procedure. The receptor was the LamB protein purified from pop 154, a strain of E. coli K12 in which the LamB gene has been transduced from Shigella sonnei 3070. Phage and LamB purification details are described in Evilevitch A., et al., Osmotic pressure inhibition of DNA ejection from phage. Proc. Natl. Acad. Sci. U.S.A. 2003; 100:9292-9295 and Ivanovska I., et al., Internal DNA pressure modifies stability of WT phage. Proc. Natl. Acad. Sci. U.S.A. 2007; 104:9603-9608.
All calorimetric measurements were performed using the MicroCal iTC200 system manufactured by GE Healthcare, Life Sciences. […] J. Mol. Biol. 2010; 395:1079-1087.
Small angle X-ray scattering (SAXS) measurements were carried out at the 12-ID B station at the Advanced Photon Source at Argonne National Laboratory. A 12-KeV X-ray beam was used to illuminate the sample with an overall scattering vector q range from 0.006 to 0.850 Å-1. A total of 120 μl of phage solution (˜5×1013 pfu/ml) was injected into a flow-through glass capillary and the solution was oscillated during the SAXS measurement with a flow rate of 10 μl/s. Forty scans with 1 s X-ray exposure time were collected and averaged for each sample. A buffer solution of the dialysis buffer for phage samples was measured using the same SAXS setup, which was further subtracted as the background. After the background subtraction, the scattered intensity I versus q was plotted and the DNA peak region was truncated from 0.18 Å-1 to 0.33 Å-1. This DNA diffraction peak was fitted with a Gaussian curve plus a linear background using function (1), where q0 is the peak center, w is the peak width, A0 is the peak area, k is the slope of the linear background and c is the offset.
[formula] […] Single-Molecule Fluorescence Measurements of Phage Ejection Ensemble Kinetics.
ITC and SAXS assays were used to determine DNA transition temperatures for WT λ-DNA length phage in MgCl2 Tris-buffer with MgCl2 concentrations varied between 5 and 50 mM, see FIGS. 3A-3C. The intracapsid DNA transition occurs at temperature T*, corresponding to either a discontinuity in the linear dependence of ΔHej on temperature (FIG. 3A) or to an abrupt change in the linear decay of the DNA diffraction peak area versus temperature measured by SAXS (FIG. 3B). DNA transition temperatures as a function of Mg-concentration determined by both techniques are in good agreement with each other and are summarized in FIG. 3C. […] However, the inventors have previously shown that at DNA packing density in phage λ, the screening effect of Mg-ions will become progressively smaller with increasing Mg-concentration due to the counter-ion saturation (Evilevitch A., et al., Effects of salt concentrations and bending energy on the extent of ejection of phage genomes. Biophys. J. 2008; 94:1110-1120). Furthermore, if the Mg ion concentration continues to increase, the counterions are forced into regions on the helices that begin to increase the effective repulsions between packaged DNA strands. […]
Background: ITC needs no label: the signal is the heat of the interaction.

[5] abbreviates: CC50, parallel to HCMV AD169 assay.
[6] abbreviates: Human betaherpesvirus 5, AD169, HFF.
[7] abbreviates: CC50, parallel to HSV-1 DM2.1 assay.
[8] abbreviates: CC50, parallel to HSV-1 E-377 assay, reduces cell viability by 50%.
Where [9] appears, read: CC50, parallel to HSV-2 strain G assay.
Where [10] appears, read: CC50, parallel to VZV Ellen assay.

As to `Nc1nc(O)c2ncn(COC(CO)CO)c2n1` [Ganciclovir, reference compound], in the data set “in vitro” (setting [5]), the CC50 is > 150 µM. Moreover, the EC50 with HCMV, strain AD169 (setting [6]) turned out to be 0.35 µM; in the data set with HCMV, strain AD169, 0.3 µM.

Take `NCCCN(CCCN)CCCN(CCCCN(CCCN(CCCN)CCCN)CCCN(CCCN)CCCN)CCCN(CCCN)CCCN` [DAB-Am-8, Polypropylenimine octaamine Dendrimer, generation 2.0,1,4-diaminobutane core]: in the data set on cell membrane, the “permeation of cell membranes” value is reported as “permeate cell membranes when complexed with free DNA”. The CC50 amounted to 4.41 µM in data set [1] (setting [5]), 9.32 µM in data set [1] (setting [7]) and 13 µM in [1] (setting [8]). For the same molecule, the EC50 with HCMV, strain AD169 (setting [6]) came out at 0.08 µM; in [2], 0.1 µM; with HSV-1, strain E-377, 0.09 µM. Besides, the EC90 was > 3.8 µM with HCMV, strain AD169 (setting [6]); > 3.8 µM in data set [2]; > 3.8 µM in the data set with HSV-1, strain E-377.

For `Nc1ccn(C[C@@H](CO)OCP(=O)(O)O)c(=O)n1` [Cidofovir, reference compound], the CC50 in the data set “in vitro” (setting [7]) is > 150 µM. For the same molecule, in data set [2], it took 2.64 µM to reach a half-maximal effect (EC50) and the EC90 was > 150 µM.

For the molecule `NCCNC(=O)CCN(CCC(=O)NCCN)CCN(CCC(=O)NCCN)CCC(=O)NCCN` [PAMAM Dendrimer G0, PAMAM dendrimer, ethylenediamine core, generation 0.0 solution], in the data set on cell membrane (compound alone, previously shown), the “permeation of the cell membrane” value is listed as “permeate the cell membrane”. Also, the CC50 in data set [1] (setting [5]) is 1.39 µM; in data set [1] (setting [8]) it was 3.79 µM; in [1] (setting [9]), 4.77 µM; in data set [1] (setting [10]), 1.17 µM. The EC50 in the data set on HSV-2, strain G (Human alphaherpesvirus 2, HFF) is 0.09 µM; in the data set with VZV, strain Ellen, > 0.6 µM; in the data set with HCMV, strain AD169 (setting [6]), > 0.6 µM; in the data set on HSV-1, strain E-377 it was 0.29 µM. Also, the 90% effect concentration (EC90) in the data set with HSV-2, strain G (Human alphaherpesvirus 2, HFF, reduces viral replication by 90%) is > 3 µM; in the data set on VZV, strain Ellen, > 0.6 µM; with HCMV, strain AD169 (setting [6]) it was > 0.6 µM; in the data set on HSV-1, strain E-377, > 3 µM. Moreover, the “dint, internal observations” value in the data set with DNA [3] (0.15-2.50 mM) is reported as 32-35.2 Å. In addition, the “dint (DNA condensation observed experimentally)” value in the data set with DNA [4] is on record as 31 Å.

`NCCCN(CCCN)CCCCN(CCCN)CCCN` [DAB-Am-4, Polypropylenimine tetramine dendrimer, generation 1,1,4-diaminobutane core, generation 1 solution]: the “permeation of cell membranes” value in the data set with cell membrane was “permeate cell membranes when complexed with free DNA”. The results for the CC50 in data set [1] (setting [5]), in [1] (setting [7]) and in data set [1] (setting [8]) were 15.4 µM, 28.6 µM and 38.1 µM, respectively. Also, the half-maximal effective concentration (EC50) in the data set on HCMV, strain AD169 (setting [6]) was 0.51 µM; in [2], > 19 µM; with HSV-1, strain E-377, 0.48 µM. Also, the concentration for an effect of 90% (EC90) in the data set with HCMV, strain AD169 (setting [6]) is 3.11 µM; in data set [2] it was > 19 µM; in the data set with HSV-1, strain E-377, 3.49 µM.

On to Tetraornithine, for which, in the data set with DNA [4], the “dint (DNA condensation observed experimentally)” value is 32.2 Å.

As to `[Cl-].[Cl-].[Mg+2]` [MgCl2], the “DNA transition temperature T*” value in the data set on phage λ (5 mM MgCl2 Tris-buffer) was ~22 °C; in the data set with phage λ (20 mM MgCl2 Tris-buffer), ~37 °C; in the data set on phage λ (50 mM MgCl2 Tris-buffer), ~35 °C.

Turning to `N.N.N.N.N.N.[Cl-].[Cl-].[Cl-].[Co+3]` [Hexaamminecobalt(III) chloride], the “DNA condensed to (internal experimental observations)” value in the data set with DNA [3] (2-100 mM) was 28 Å. Moreover, the “dint (DNA condensation observed experimentally)” value in the data set on DNA [4] is 27.8-28.2 Å.

For `Nc1nc2c(ncn2COCCO)c(=O)[nH]1` [Acyclovir, reference compound], the EC50 with HSV-2, strain G (Human alphaherpesvirus 2, HFF) was 3.69 µM; in the data set on HSV-2, strain G it was 2.88 µM; with VZV, strain Ellen it was 5.14 µM; in [2] it was > 150 µM. The concentration for an effect of 90% (EC90) is 23.8 µM in the data set with VZV, strain Ellen and > 150 µM in [2]. The CC50 in “in vitro” (setting [7]), in “in vitro” (setting [8]), in the data set “in vitro” (setting [9]) and in the data set “in vitro” (setting [10]) was > 150 µM throughout.

In the case of “Arg4+: poly-L-arginine peptide (SEQ ID NO: 21), Charge=+4 (RRRR; Synthetic Arg4+)”, the “dint, internal observations” value in the data set on DNA [3] (1-2.5 mM) is listed as 29.7-30.3 Å. Besides, the “dint (DNA condensation observed experimentally)” value in the data set with DNA [4] is 29.8 Å.

Turning to Triornithine, in the data set on DNA [4], the “dint (DNA condensation observed experimentally)” value was 35.6 Å.

For Tetralysine (KKKK; Synthetic Lys4+), the “dint (DNA condensation observed experimentally)” value in the data set with DNA [4] is 34.9 Å.

Regarding Trilysine, the “dint (DNA condensation observed experimentally)” value in the data set on DNA [4] is reported as 38.9 Å.

Consider `Cl.Cl.Cl.NCCCCNCCCN` [Spermidine trihydrochloride], for which the “dint (DNA condensation observed experimentally)” value in the data set on DNA [4] is reported as 28.8-29.7 Å.

With `Cl.Cl.Cl.Cl.NCCCNCCCCNCCCN` [spermine tetrahydrochloride], the “dint, internal experimental observations” value in the data set on DNA [3] (0.5-100 mM) is 28.2-29.4 Å. For the same molecule, the “dint (DNA condensation observed experimentally)” value in the data set on DNA [4] was 28 Å. Further, the “intracapsid DNA transition (DNA diffraction peak area vs temperature)” value in the data set on phage λ (WT DNA length phage λ, 10 mM MgCl2 Tris-buffer, 1 mM spermine (4+), 20-40° C.) is “no abrupt DNA transition is observed”.

Usually EC50 stands for the concentration giving half of the maximal effect. A lower EC50 goes with a more potent agent. As a reminder, the EC90 is the concentration at which the effect reaches the 90% level.
